Reference: ChEMBL document CHEMBL1743141, “Membrane transporters in drug development” (Nat Rev Drug Discov, 2010)
Square brackets hold non-standard residues; d marks the D form. Peptide text beside a SMILES is read from it. Sar = CNCC(=O)O

Columns and labels:
Format in all cases: ADME
[1] = target: T1, Solute carrier organic anion transporter family member 1B1 (Homo sapiens, UniProt Q9Y6L6); assay: Substrates of transporters of clinical importance in the absorption and disposition of drugs, OATP1B1
T1 sequence (Q9Y6L6 whole entry): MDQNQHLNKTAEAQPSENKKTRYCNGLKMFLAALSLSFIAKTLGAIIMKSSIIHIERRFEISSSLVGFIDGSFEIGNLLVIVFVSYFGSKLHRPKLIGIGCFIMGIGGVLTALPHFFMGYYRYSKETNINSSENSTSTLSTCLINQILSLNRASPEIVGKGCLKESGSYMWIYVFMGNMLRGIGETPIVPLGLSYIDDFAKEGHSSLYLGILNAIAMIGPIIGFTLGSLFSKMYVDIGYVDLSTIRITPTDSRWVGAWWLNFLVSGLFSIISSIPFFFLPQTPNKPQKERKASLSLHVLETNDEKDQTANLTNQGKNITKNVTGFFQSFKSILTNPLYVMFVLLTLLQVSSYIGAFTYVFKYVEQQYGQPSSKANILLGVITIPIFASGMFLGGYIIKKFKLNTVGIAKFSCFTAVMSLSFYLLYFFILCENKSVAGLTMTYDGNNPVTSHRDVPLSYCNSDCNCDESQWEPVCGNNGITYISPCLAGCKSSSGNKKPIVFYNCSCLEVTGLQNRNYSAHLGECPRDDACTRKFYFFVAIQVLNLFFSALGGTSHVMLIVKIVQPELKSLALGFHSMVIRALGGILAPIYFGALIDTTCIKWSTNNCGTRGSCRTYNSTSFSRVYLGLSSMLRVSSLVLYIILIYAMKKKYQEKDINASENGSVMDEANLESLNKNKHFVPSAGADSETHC

[2] = target: T2, Solute carrier family 22 member 2 (Homo sapiens, UniProt O15244); assay: Substrates of transporters of clinical importance in the absorption and disposition of drugs, OCT2
T2 sequence (O15244 whole entry): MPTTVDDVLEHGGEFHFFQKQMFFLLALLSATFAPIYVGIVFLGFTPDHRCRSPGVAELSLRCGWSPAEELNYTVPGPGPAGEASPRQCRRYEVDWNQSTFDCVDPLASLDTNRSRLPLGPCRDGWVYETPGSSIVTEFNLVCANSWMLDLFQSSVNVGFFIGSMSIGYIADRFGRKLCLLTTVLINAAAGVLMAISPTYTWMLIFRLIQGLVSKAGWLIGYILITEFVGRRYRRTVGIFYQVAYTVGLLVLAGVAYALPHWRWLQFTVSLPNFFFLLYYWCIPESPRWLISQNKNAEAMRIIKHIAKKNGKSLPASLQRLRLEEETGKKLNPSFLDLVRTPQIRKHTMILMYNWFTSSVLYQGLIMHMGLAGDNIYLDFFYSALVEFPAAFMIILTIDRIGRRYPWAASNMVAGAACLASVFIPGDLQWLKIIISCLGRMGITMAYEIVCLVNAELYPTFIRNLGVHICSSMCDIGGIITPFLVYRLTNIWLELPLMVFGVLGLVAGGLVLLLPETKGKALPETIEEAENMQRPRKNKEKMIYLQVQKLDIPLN

[3] = target: T3, Solute carrier family 15 member 1 (Homo sapiens, UniProt P46059); assay: Substrates of transporters of clinical importance in the absorption and disposition of drugs, PEPT1
T3 sequence (P46059 whole entry): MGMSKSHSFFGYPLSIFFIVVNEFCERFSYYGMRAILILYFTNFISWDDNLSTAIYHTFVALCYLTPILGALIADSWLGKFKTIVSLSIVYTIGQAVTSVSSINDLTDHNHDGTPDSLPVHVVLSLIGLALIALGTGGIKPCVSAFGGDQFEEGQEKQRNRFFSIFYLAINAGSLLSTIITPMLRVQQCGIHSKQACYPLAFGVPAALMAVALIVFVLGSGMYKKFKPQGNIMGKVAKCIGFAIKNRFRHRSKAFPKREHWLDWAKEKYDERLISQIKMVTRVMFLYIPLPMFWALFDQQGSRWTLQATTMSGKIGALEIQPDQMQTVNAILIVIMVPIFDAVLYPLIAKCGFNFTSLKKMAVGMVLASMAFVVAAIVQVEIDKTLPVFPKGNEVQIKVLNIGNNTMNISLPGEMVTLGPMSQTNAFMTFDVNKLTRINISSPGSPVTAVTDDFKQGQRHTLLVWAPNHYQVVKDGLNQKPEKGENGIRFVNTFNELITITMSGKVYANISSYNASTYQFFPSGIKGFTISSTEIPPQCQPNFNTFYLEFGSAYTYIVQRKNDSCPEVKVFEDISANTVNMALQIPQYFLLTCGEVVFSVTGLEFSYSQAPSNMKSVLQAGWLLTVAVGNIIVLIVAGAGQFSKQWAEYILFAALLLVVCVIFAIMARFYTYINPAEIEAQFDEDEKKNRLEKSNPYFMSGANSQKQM

[4] = target: T4, Solute carrier family 15 member 2 (Homo sapiens, UniProt Q16348); assay: Substrates of transporters of clinical importance in the absorption and disposition of drugs, PEPT2
T4 sequence (Q16348 whole entry): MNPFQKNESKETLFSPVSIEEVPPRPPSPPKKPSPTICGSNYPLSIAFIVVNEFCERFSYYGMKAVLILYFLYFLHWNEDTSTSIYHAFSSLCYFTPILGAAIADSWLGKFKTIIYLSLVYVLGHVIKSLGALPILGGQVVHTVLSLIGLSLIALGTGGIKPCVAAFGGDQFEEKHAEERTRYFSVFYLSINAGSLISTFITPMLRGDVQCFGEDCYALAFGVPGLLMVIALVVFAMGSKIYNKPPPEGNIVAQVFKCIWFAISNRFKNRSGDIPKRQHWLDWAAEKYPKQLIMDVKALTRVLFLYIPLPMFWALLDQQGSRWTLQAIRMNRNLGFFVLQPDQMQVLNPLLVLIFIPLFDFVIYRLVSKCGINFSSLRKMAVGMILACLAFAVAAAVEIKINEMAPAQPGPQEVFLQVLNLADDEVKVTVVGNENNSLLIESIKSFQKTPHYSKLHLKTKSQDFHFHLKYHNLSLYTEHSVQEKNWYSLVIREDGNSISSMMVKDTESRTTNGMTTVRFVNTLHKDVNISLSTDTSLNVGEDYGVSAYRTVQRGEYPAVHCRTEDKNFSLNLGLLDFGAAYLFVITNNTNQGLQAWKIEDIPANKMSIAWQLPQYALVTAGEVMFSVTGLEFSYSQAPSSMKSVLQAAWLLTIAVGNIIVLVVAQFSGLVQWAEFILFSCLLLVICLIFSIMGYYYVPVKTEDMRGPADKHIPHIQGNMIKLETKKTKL

[5] = target: T5, Solute carrier organic anion transporter family member 1B3 (Homo sapiens, UniProt Q9NPD5); assay: Substrates of transporters of clinical importance in the absorption and disposition of drugs, OATP1B3
T5 sequence (Q9NPD5 whole entry): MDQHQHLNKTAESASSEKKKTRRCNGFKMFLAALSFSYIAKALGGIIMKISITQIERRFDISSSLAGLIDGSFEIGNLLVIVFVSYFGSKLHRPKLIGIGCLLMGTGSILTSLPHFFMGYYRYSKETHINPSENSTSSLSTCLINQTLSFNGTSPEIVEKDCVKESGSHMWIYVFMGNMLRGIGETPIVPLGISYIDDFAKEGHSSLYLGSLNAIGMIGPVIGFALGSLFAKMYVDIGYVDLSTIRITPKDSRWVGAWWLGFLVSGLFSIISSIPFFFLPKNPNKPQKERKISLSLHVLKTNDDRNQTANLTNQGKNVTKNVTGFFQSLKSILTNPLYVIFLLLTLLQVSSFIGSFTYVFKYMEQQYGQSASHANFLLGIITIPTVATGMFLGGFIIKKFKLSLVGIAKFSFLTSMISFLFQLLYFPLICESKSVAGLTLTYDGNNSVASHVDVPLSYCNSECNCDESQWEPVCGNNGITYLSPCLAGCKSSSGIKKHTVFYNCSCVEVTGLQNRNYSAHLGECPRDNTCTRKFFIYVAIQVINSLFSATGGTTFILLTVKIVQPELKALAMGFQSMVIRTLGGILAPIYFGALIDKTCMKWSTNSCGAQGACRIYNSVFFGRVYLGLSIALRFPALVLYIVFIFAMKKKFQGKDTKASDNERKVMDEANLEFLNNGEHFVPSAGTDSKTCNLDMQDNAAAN

[6] = target: T6, Solute carrier organic anion transporter family member 1A2 (Homo sapiens, UniProt P46721); assay: Substrates of transporters of clinical importance in the absorption and disposition of drugs, OATP1A2
T6 sequence (P46721 whole entry): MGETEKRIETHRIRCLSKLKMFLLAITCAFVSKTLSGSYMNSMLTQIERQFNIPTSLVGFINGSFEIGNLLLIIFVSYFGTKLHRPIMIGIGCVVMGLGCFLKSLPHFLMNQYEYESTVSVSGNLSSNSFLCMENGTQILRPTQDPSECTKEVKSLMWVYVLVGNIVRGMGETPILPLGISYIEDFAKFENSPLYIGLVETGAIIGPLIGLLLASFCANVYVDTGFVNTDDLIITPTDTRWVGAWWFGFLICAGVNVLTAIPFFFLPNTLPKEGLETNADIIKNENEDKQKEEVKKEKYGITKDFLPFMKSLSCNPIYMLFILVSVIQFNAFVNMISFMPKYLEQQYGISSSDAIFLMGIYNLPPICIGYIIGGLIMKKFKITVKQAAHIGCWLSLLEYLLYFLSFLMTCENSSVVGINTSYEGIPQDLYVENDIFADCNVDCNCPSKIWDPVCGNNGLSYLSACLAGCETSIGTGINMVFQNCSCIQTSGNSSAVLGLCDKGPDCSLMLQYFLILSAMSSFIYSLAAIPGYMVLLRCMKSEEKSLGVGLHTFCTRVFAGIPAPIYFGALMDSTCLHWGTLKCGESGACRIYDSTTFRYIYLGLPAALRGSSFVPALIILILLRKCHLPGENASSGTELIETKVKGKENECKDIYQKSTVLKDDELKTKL

Q: How did the Activity [1] turn out when `CCOc1cc(CC(=O)N[C@@H](CC(C)C)c2ccccc2N2CCCCC2)ccc1C(=O)O` [REPAGLINIDE] was run?
A: transporter substrate

Q: How did the Activity [2] turn out when `NC12CC3CC(CC(C3)C1)C2` [AMANTADINE] was run?
A: transporter substrate

Q: Which results are given for `CC(C)C[C@H](NC(=O)[C@@H](O)[C@H](N)Cc1ccccc1)C(=O)O` [UBENIMEX]?
A: Activity [3]: transporter substrate; Activity [4]: transporter substrate

Q: With `CSCC[C@H](NC(=O)[C@H](Cc1ccc(OS(=O)(=O)O)cc1)NC(=O)[C@@H](N)CC(=O)O)C(=O)NCC(=O)N[C@@H](Cc1c[nH]c2ccccc12)C(=O)N[C@@H](CCSC)C(=O)N[C@@H](CC(=O)O)C(=O)N[C@@H](Cc1ccccc1)C(N)=O` [SINCALIDE] as the molecule, how does the Activity [5] read?
A: transporter substrate

Q: For `N=C(N)NC(=O)c1nc(Cl)c(N)nc1N` [AMILORIDE], which Activity [2] is on record?
A: transporter substrate

Q: `CN(CC(=O)O)C(=O)CN` [GLYCYLSARCOSINE] (H-Gly-[Sar]-OH) was tested. Which Activity [3] did it give?
A: transporter substrate

Q: And the Activity [4]?
A: transporter substrate

Q: Which Activity [2] does the source give for `CNC(=C[N+](=O)[O-])NCCSCc1ccc(CN(C)C)o1` [RANITIDINE] here?
A: transporter substrate

Q: How did the Activity [1] turn out when `C=CC1=C(C)/C(=C/c2[nH]c(Cc3[nH]c(/C=C4\NC(=O)C(C)=C4C=C)c(C)c3CCC(=O)O)c(CCC(=O)O)c2C)NC1=O` [BILIRUBIN] was run?
A: transporter substrate

Q: What does the source list for `CCOC(=O)[C@H](CCc1ccccc1)N[C@@H](C)C(=O)N1CCC[C@H]1C(=O)O`?
A: Activity [3]: transporter substrate; Activity [4]: transporter substrate

Q: Which Activity [2] does the source give for `c1cnc2cc3c(cc2n1)[C@@H]1CNC[C@H]3C1` [VARENICLINE] here?
A: transporter substrate

Q: With `NCC(=O)CCC(=O)O` [AMINOLEVULINIC ACID] as the molecule, how does the Activity [3] read?
A: transporter substrate

Q: And the Activity [4]?
A: transporter substrate

Q: Which Activity [5] does the source give for `CCCc1nc2c(C)cc(-c3nc4ccccc4n3C)cc2n1Cc1ccc(-c2ccccc2C(=O)O[C@@H]2O[C@H](C(=O)O)[C@@H](O)[C@H](O)[C@H]2O)cc1` [TELMISARTAN GLUCURONIDE] here?
A: transporter substrate

Q: `CC(C)NCC(O)COc1cccc2[nH]ccc12` (stereo not given) [PINDOLOL] was tested. Which Activity [2] did it give?
A: transporter substrate

Q: For `CC1=C(C(=O)O)N2C(=O)[C@@H](NC(=O)[C@H](N)c3ccccc3)[C@H]2SC1` [CEPHALEXIN ANHYDROUS], which Activity [3] is on record?
A: transporter substrate

Q: And the Activity [4]?
A: transporter substrate

Q: How did the Activity [1] turn out when `C=CC1=C(C)/C(=C/c2[nH]c(Cc3[nH]c(/C=C4\NC(=O)C(C)=C4C=C)c(C)c3CCC(=O)O[C@@H]3O[C@H](C(=O)O)[C@@H](O)[C@H](O)[C@H]3O)c(CCC(=O)O[C@@H]3O[C@H](C(=O)O)[C@@H](O)[C@H](O)[C@H]3O)c2C)NC1=O` [BILIRUBIN GLUCURONIDE] was run?
A: transporter substrate

Q: How did the Activity [5] turn out when `CCCc1nc2c(C)cc(-c3nc4ccccc4n3C)cc2n1Cc1ccc(-c2ccccc2C(=O)O)cc1` was run?
A: transporter substrate

Q: With `CC(C)[C@H](N)C(=O)OCCOCn1cnc2c(=O)[nH]c(N)nc21` [VALACYCLOVIR] as the molecule, how does the Activity [3] read?
A: transporter substrate

Q: What about the Activity [4] of the same molecule?
A: transporter substrate

Q: With `C[C@H]1COc2c(N3CCN(C)CC3)c(F)cc3c(=O)c(C(=O)O)cn1c23.C[C@H]1COc2c(N3CCN(C)CC3)c(F)cc3c(=O)c(C(=O)O)cn1c23.O` [LEVOFLOXACIN] as the molecule, how does the Activity [6] read?
A: transporter substrate

Q: Which Activity [6] does the source give for `C[C@@H]1O[C@@H](O[C@H]2C[C@@H](O)[C@]3(CO)[C@H]4[C@H](O)C[C@]5(C)[C@@H](C6=CC(=O)OC6)CC[C@]5(O)[C@@H]4CC[C@]3(O)C2)[C@H](O)[C@H](O)[C@H]1O` [OUABAIN] here?
A: transporter substrate
